From US20230271142A1, “METHODS OF PREPARING SOLID PARTICULATE MATERIALS” (MICROPORE TECHNOLOGIES LIMITED, priority 2020, published 2023)
“And” between values parts separate entries of the source, which are not always exact repeats. Equal values may be shown once. Values belong to the compound of their own block, whether it stands above or below them.

Columns and labels:
Format in all cases: physicochemical
[1] = Effect of aqueous phase surfactant on carbamazepine crystals produced via LDC (Jorin ViPA); conditions: for D10 / D50 / D90 / Volume Mean: LDC
Protocol: 0.4 g of Carbamazepine was dissolved in 10 ml methanol in a beaker at 45° C. to make up the organic phase. In one instance, 0.5% Pluronic PEG P123 (Mn˜5,800) in DI water was used as the aqueous phase. In another instance, 0.5% HPMC (Mn˜10,000) in DI water was used as the aqueous phase.
The LDC was configured with a membrane with 10 μm pores, spaced 200 μm apart in a ring formation. The stirrer speed was set at 14V (1750 rpm), and the organic phase injection rate set at 10 ml/min. The line was primed with organic phase and the aqueous was poured into the stirred cell. The organic phase addition was started and ended when 3 ml of DP was injected.
The solution was left to stir until precipitation was visible. The crystals were analyzed via microscopy and Jorin ViPA. The results are relayed in FIG. 18 and Table 7.

[2] = Crystal size distribution of metformin crystals produced via LDC (Jorin ViPA)
Protocol: 0.4 g of Metformin was dissolved in 10 ml methanol in a beaker to make up the organic phase. 0.5% Tween 20 in […] was used as the aqueous phase.
The LDC was configured with a membrane with 10 μm pores, spaced 200 μm apart in a ring-shape. The stirrer speed was set at 14V (1750 rpm), and the injection rate set at 10 ml/min. The line was primed with organic phase and the aqueous phase was poured into the dispersion cell. Addition of the organic phase was started and ended when 3 ml of DP was injected.
The solution was left to stir until precipitation was visible. The crystals were analyzed via microscopy and Jorin ViPA. The results are relayed in FIG. 23 and Table 9.

[3] = Crystal size distribution of paracetamol crystals from CXF by Jorin Visual Particle Size Analyser (ViPA)
Protocol: A solution of paracetamol in ethanol (0.3 g/ml) was prepared, alongside an aqueous phase consisting of 0.5% wt. PEG […] in DI water. The CXF was configured with a membrane with 10 μm pores, spaced 200 μm apart in a square grid. A 9.5 mm insert was used. The materials were pumped using gear pumps. The aqueous continuous phase was pumped through the annulus at the center of the membrane. The organic disperse phase was pumped through the top port of the device calibrated at a rate of […], through the membrane and into the flow of continuous phase at 200 ml/min. The solution was collected in a beaker and stirred with an overhead stirrer at 500 rpm for 10-15 minutes. The experiment was repeated 3 times. The resultant crystal suspension was examined via microscopy (see FIG. 1), and Jorin Visual Particle Size Analyser (ViPA) for crystal size and uniformity, (FIG. 2 and Table 1).

[4] = Crystal size distribution of piroxicam crystals from CXF by laser diffraction (Beckmann Coulter LS-230); conditions: 5 μm pores
Protocol: The CXF was configured with a membrane with 5 μm pores, spaced 45 μm apart in a square grid. A 9.5 mm insert was used. The materials were pumped using gear pumps. The aqueous continuous phase was pumped at […] through the annulus at the center of the membrane. The organic disperse phase was pumped at 17 mL/min through the top port of the device, through the membrane and into the flow of continuous phase. The solution was collected in a 250 ml beaker and stirred with an overhead stirrer at 500 rpm for 10-15 minutes. The crystals were analyzed via microscopy and Laser Diffraction (Beckmann Coulter LS-230). The results are relayed in FIGS. 4 and 5 and Table 2.

[5] = Crystal size distribution of prednisolone crystals from CXF by Jorin ViPA; conditions: 10 μm pores
Protocol: 8 g of Prednisolone was dissolved in 200 ml of ethanol in a beaker at 55° C. to make up the organic phase. 0.5% PVA (Mowiol 23-88) in DI water was used as the aqueous phase.
The CXF was configured with a membrane with 10 μm pores, spaced 200 μm apart in a square grid. A 9.5 mm insert was used. The materials were pumped using gear pumps, calibrated so the aqueous continuous phase flow was […] and the organic disperse phase flow was 28 mL/min.
The aqueous continuous phase was pumped through the annulus at the center of the membrane. The organic disperse phase, held at 55° C., was pumped through the top port of the device, through the membrane pores and into the flow of continuous phase.
The resultant solution was collected in a 500 ml beaker and stirred with an overhead stirrer at 500 rpm for 10-15 minutes. The crystals were analyzed via microscopy and Jorin ViPA. The results are relayed in FIGS. 6 and 7 and Table 3.

[6] = Effect of disperse phase flow rate on size distribution of telmisartan particles (CXF, laser diffraction); conditions: for D10 / D50 / D90 / Volume Mean: CXF, 10 μm pores
Protocol: A solution of telmisartan in DMSO (0.06 g/ml) was prepared as the organic phase. The aqueous phase was composed of distilled water. The CXF was configured with a membrane with 10 μm pores, spaced 200 μm apart in a square grid. A 9.5 mm insert was used. The materials were pumped using gear pumps. The aqueous continuous phase was pumped through the annulus at the center of the membrane at […]. The organic disperse phase was pumped through the top port of the device at rates of […], through the membrane and into the flow of continuous phase that was calibrated. The solution was collected in a beaker and stirred with an overhead stirrer at 500 rpm for 5-10 minutes.

[7] = Effect of membrane pore diameter on size distribution of telmisartan particles (CXF, laser diffraction); conditions: for D10 / D50 / D90 / Volume Mean: CXF, DP 58 mL/min
Protocol: A solution of telmisartan in DMSO (0.06 g/ml) was prepared as the organic phase. The aqueous phase was composed of distilled water. The CXF was configured with membranes of different pore sizes that included 5, 10, 20 and 40 μm pores, spaced 200 μm apart in a square grid. A 9.5 mm insert was used. The materials were pumped using gear pumps. The aqueous continuous phase was pumped through the annulus at the center of the membrane at a rate of 464 ml/min. The organic disperse phase was pumped through the top port of the device at a rate of 58 mL/min, through the membrane pores and into the flow of continuous phase. The solution was collected in a beaker and stirred with an overhead stirrer at 500 rpm for 5-10 minutes.

[8] = Particle size distribution of amorphous telmisartan produced via LDC and CXF (laser diffraction); conditions: three runs; for D10 / D50 / D90 / Volume Mean D[4,3]: 10 μm pores, ± standard deviation; for StDev: of the size distribution
Protocol: Reproducibility of the Production of Amorphous Telmisartan and Translation from Stirred Cell LDC to Continuous Crossflow CXF Devices A solution of telmisartan in DMSO (0.06 g/ml) was prepared for use as the organic phase. An aqueous phase of 50 ml of DI water was prepared. The LDC was configured with a membrane with 10 μm pores, spaced 200 μm apart in a square grid, in a ring sat underneath a stirrer paddle. […] The stirrer was set to […] (1750 rpm). […] The LDC runs were repeated three times. Additionally, a solution of telmisartan in DMSO (0.06 g/ml) was prepared as an organic phase. An aqueous phase was composed of distilled water. A CXF was configured with a membrane with 10 μm pores, spaced 200 μm apart in a square grid. A 9.5 mm insert was used. The materials were pumped using gear pumps. The aqueous continuous phase was pumped through the annulus at the center of the membrane at a rate of 464 ml/min. The organic disperse phase was pumped through the top port of the device at a rate of 58 mL/min, through the membrane pores and into the flow of continuous phase. This preserved the 8:1 CP:DP ratio used in the LDC experiments and generated a similar shear profile. The solution was collected in a beaker and stirred with an overhead stirrer at 500 rpm for 5-10 minutes. The CXF runs were repeated three times. The particle size distributions of material produced on the LDC are shown in Table 6, with errors given as the standard deviations, alongside those for the CXF runs.

[9] = aqueous phase 0.5% HPMC (form III)
[10] = aqueous phase 0.5% P123 (form II)
[11] = 10 μm pores, methanol solution into 0.5% Tween 20 in acetonitrile
[12] = Average ± Standard Deviation of 3 runs
[13] = CXF, 10 μm pores, Average ± Standard Deviation of 3 runs
[14] = volume distribution, CXF, 10 μm pores, ethanol solution into 0.5% PEG P123 water, single runs 1-3
[15] = volume distribution, ethanol solution into 0.5% HPMC water
[16] = volume distribution, ethanol solution 55° C. into 0.5% PVA water
[17] = disperse phase 58 mL/min (average of three)
[18] = 10 μm pore membrane (average of three)

Span ([1]; 0.5% HPMC): 1.10
Span ([1]; 0.5% P123): 0.81
D10 [1, 9]: 28.90 μm
D50 [1, 9]: 44.92 μm
D90 [1, 9]: 78.16 μm
Volume Mean [1, 9]: 48.84 μm
D10 [1, 10]: 29.92 μm
D50 [1, 10]: 42.37 μm
D90 [1, 10]: 64.09 μm
Volume Mean [1, 10]: 45.79 μm
SMILES: NC(=O)N1c2ccccc2C=Cc2ccccc21 [Carbamazepine]

Span [2]: 1.09
Size Mean ([2]; 10 μm pores): 12.430 μm
Volume Mean ([2]; 10 μm pores): 53.10 μm
D10 [2, 11]: 25.63 μm
D50 [2, 11]: 50.80 μm
D90 [2, 11]: 81.03 μm
SMILES: CN(C)C(=N)N=C(N)N [Metformin]

CV % [3, 12]: 39.07 ± 1.660%
Span [3, 12]: 1.100 ± 0.066
Volume Mean D[4,3] ([3]; CXF, 10 μm pores, ethanol solution into 0.5% PEG P123 water, single runs 1-3): 45.37 μm and 44.28 μm and 41.17 μm
D10 [3, 13]: 23.81 ± 0.894 μm
D50 [3, 13]: 40.42 ± 0.573 μm
D90 [3, 13]: 68.31 ± 3.604 μm
Volume Mean D[4,3] [3, 13]: 43.61 ± 1.258 μm
Span ([3]; CXF, 10 μm pores, single runs 1-3): 1.232 and 1.044 and 1.024
StDev ([3]; of the size distribution, Average ± Standard Deviation of 3 runs): 17.05 ± 1.021 μm
D10 [3, 14]: 24.12 μm and 25.18 μm and 22.13 μm
D50 [3, 14]: 41.15 μm and 40.82 μm and 39.29 μm
D90 [3, 14]: 74.81 μm and 67.77 μm and 62.36 μm
SMILES: CC(=O)Nc1ccc(O)cc1 [Paracetamol, paracetamol]

Span [4]: 1.78
Mean ([4]; volume distribution): 6.978 μm
D10 [4, 15]: 1.240 μm
D50 [4, 15]: 6.562 μm
D90 [4, 15]: 12.96 μm
SMILES: CN1C(C(=O)Nc2ccccn2)=C(O)c2ccccc2S1(=O)=O [Piroxicam]

Span [5]: 0.72
Volume Mean [5]: 45.73 μm
D10 [5, 16]: 29.47 μm
D50 [5, 16]: 43.76 μm
D90 [5, 16]: 60.78 μm
SMILES: C[C@]12C=CC(=O)C=C1CC[C@@H]1[C@@H]2[C@@H](O)C[C@@]2(C)[C@H]1CC[C@]2(O)C(=O)CO [Prednisolone]

D10 ([6]; disperse phase 15 mL/min): 4.653 μm
D50 ([6]; disperse phase 15 mL/min): 10.11 μm
D90 ([6]; disperse phase 15 mL/min): 15.76 μm
Volume Mean ([6]; disperse phase 15 mL/min): 10.17 μm
D10 ([6]; disperse phase 29 mL/min): 4.981 μm
D50 ([6]; disperse phase 29 mL/min): 10.09 μm
D90 ([6]; disperse phase 29 mL/min): 18.9 μm
Volume Mean ([6]; disperse phase 29 mL/min): 11.79 μm
D10 [6, 17]: 7.359 μm
D50 [6, 17]: 15.66 μm
D90 [6, 17]: 28.00 μm
Volume Mean [6, 17]: 17.11 μm
Span ([6]; disperse phase 15 mL/min): 1.099
Span ([6]; disperse phase 29 mL/min): 1.379
Span [6, 17]: 1.318
C.V ([7]; 5 μm pore membrane): 53.31%
C.V [7, 18]: 50.06%
C.V ([7]; 20 μm pore membrane): 57.77%
C.V ([7]; 40 μm pore membrane): 56.41%
D10 ([7]; 5 μm pore membrane): 6.506 μm
D50 ([7]; 5 μm pore membrane): 13.01 μm
D90 ([7]; 5 μm pore membrane): 22.83 μm
Volume Mean ([7]; 5 μm pore membrane): 14.31 μm
D10 [7, 18]: 7.359 μm
D50 [7, 18]: 15.66 μm
D90 [7, 18]: 28.00 μm
Volume Mean [7, 18]: 17.11 μm
D10 ([7]; 20 μm pore membrane): 6.555 μm
D50 ([7]; 20 μm pore membrane): 18.72 μm
D90 ([7]; 20 μm pore membrane): 37.68 μm
Volume Mean ([7]; 20 μm pore membrane): 20.60 μm
D10 ([7]; 40 μm pore membrane): 8.451 μm
D50 ([7]; 40 μm pore membrane): 23.16 μm
D90 ([7]; 40 μm pore membrane): 45.99 μm
Volume Mean ([7]; 40 μm pore membrane): 25.42 μm
D10 ([8]; CXF): 7.359 ± 1.096 μm
D50 ([8]; CXF): 15.66 ± 1.558 μm
D90 ([8]; CXF): 28.0 ± 2.091 μm
Volume Mean D[4,3] ([8]; CXF): 17.11 ± 1.538 μm
CV ([8]; CXF): 50.57 ± 3.09%
Span ([8]; CXF): 1.389 ± 0.070
D10 ([8]; LDC): 6.952 ± 0.357 μm
D50 ([8]; LDC): 14.32 ± 0.693 μm
D90 ([8]; LDC): 26.43 ± 1.268 μm
Volume Mean D[4,3] ([8]; LDC): 15.79 ± 0.755 μm
CV ([8]; LDC): 51.07 ± 0.937%
Span ([8]; LDC): 1.360 ± 0.028
StDev ([8]; CXF): 8.565 ± 0.275 μm
StDev ([8]; LDC): 8.066 ± 0.430 μm
SMILES: CCCc1nc2c(C)cc(-c3nc4ccccc4n3C)cc2n1Cc1ccc(-c2ccccc2C(=O)O)cc1 [Telmisartan, telmisartan]
